In US9629828B2, “Methods of treating traveler's diarrhea and hepatic encephalopathy” (priority 2008, dated 2017):

Legend:
[1] = human
Procedure: The covariates chosen for the analysis are known indicators of hepatic and renal function. A visual diagnostic was performed to detect potential trends between covariates of interest and AUCτ, Cmax, and CL/F.

[2] = test system: patients with hepatic encephalopathy; experiment: First study: adverse events, rifaximin 550 mg BID; type: in vivo, human
Description: Ninety-one percent of patients in the trial were taking lactulose concomitantly. […] (These include adverse events that may be attributable to the underlying disease.)
The following includes adverse events occurring at a greater incidence than placebo, regardless of causal relationship to drug exposure.
A total of 79.9% of subjects (239 of 299) experienced TEAEs during the course of the study.

[3] = test system: subjects in remission from hepatic encephalopathy (HE); experiment: First study: asterixis grade (time to any increase, change from baseline); type: in vivo, human; conditions: for Probability of no increase in asterixis grade: Kaplan-Meier; for Probability of no increase in asterixis grade / Cumulative number of events (increase in asterixis grade) / Event probability (increase in asterixis grade during the treatment interval) / Number of events (increase in asterixis grade): ITT, N = 140
Procedure: Asterixis (flapping tremor) was determined with the subject holding both arms and forearms extended with wrists dorsiflexed and fingers open for ≧30 seconds. Asterixis was measured on a continuum of 5 grades, e.g., grades 0 and 4=no abnormal movement vs. almost continuous flapping motions, respectively as shown below:
Efficacy in regard to asterixis grade was measured as time to any increase from baseline in asterixis grade.
FIG. 12 illustrates time to any increase from baseline in asterixis grade by treatment group in the ITT population in the first study. Table 21 presents estimates of the proportions of subjects who had any increase in asterixis grade over the course of the Treatment Period and results of statistical analyses. Subjects who discontinued prior to experiencing an increase in asterixis grade and prior to completion of the 6-month treatment period were censored at the time of discontinuation.

cytochrome P450 2C19 = biological target: T1, cytochrome P450 2C19 (Homo sapiens, UniProt P33261); experiment: In vitro cytochrome P450 inhibition; type: in vitro ADME; conditions: 2 to 200 ng/mL
T1 construct: from tissue; host or cells: human liver fractions

clinical = conditions: male, human, in vivo
patients with HE = type: in vivo, human
Description: Total number of hospitalizations, duration of hospitalizations, HE endpoints, and cost of therapy were compared between the 2 treatment regimens.

cytochrome P450 2D6 = biological target: T2, cytochrome P450 2D6 (Homo sapiens, UniProt P10635); experiment: In vitro cytochrome P450 inhibition; type: in vitro ADME; conditions: 2 to 200 ng/mL
T2 construct: from tissue; host or cells: human liver fractions

CYP3A4 = biological target: T3, CYP3A4 (Homo sapiens, UniProt P08684); experiment: In vitro cytochrome P450 inhibition; type: in vitro ADME; conditions: 2 to 200 ng/mL
T3 construct: from tissue; host or cells: human liver fractions

epithelial cells = experiment: Effects of rifaximin on mammalian epithelial cells; type: cell-based
[4] = test system: subjects with a history of recurrent, overt, episodic HE; experiment: Second study (3002, open-label extension): breakthrough overt HE; type: in vivo, human
Procedure: Unlike the first study, subjects were not required to withdraw from the study after experiencing a breakthrough overt HE episode.
Conn scores and asterixis grades were assessed during the course of the study.
Therefore, the incidence of breakthrough overt HE over time during rifaximin therapy was evaluated. Table 24 presents breakthrough overt HE episodes by total number of HE episodes during the course of the study.
Most subjects in the second study (152 of 266) were also in the first study. […] The numbers of overt HE episodes experienced during the 6-month or 12-month intervals prior to the first study or prior to the second study were known.

Shigella flexneri 2a = experiment: Open-label Shigella flexneri 2a challenge study; type: in vivo, human; conditions: 13 treated subjects, 200 mg every 8 hours 3 days
[5] = treatment interval 0 to <28 days
[6] = treatment interval 28 to <56 days
[7] = treatment interval 56 to <84 days
[8] = treatment interval 84 to <140 days
[9] = treatment interval 140 to <168 days

T1 sequence (P33261 whole entry): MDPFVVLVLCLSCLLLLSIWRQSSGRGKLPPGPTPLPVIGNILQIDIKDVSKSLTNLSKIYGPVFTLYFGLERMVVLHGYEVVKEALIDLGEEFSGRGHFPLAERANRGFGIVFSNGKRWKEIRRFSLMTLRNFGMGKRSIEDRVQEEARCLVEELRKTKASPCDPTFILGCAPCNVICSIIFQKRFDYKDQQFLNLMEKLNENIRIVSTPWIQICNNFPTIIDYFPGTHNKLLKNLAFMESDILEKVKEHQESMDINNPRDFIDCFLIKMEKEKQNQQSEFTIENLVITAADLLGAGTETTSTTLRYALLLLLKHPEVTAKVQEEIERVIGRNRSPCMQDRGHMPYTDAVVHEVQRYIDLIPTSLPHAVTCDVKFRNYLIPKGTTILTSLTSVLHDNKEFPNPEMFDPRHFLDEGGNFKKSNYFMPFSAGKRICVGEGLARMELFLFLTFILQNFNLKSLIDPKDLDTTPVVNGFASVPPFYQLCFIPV
T3 sequence (P08684 whole entry): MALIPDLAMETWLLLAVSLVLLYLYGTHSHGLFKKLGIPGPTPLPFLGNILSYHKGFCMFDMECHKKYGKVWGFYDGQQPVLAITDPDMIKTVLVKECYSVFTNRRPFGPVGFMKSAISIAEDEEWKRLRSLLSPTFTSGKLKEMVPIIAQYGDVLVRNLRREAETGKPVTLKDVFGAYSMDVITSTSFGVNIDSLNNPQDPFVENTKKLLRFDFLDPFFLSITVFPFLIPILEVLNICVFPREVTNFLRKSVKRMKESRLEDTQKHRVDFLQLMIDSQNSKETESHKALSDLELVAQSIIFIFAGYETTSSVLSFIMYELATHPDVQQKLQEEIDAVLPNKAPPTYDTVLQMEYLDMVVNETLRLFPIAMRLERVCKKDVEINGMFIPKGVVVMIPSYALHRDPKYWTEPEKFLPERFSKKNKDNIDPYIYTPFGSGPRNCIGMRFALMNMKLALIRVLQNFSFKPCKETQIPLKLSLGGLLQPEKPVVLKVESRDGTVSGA
T2 sequence (P10635 whole entry): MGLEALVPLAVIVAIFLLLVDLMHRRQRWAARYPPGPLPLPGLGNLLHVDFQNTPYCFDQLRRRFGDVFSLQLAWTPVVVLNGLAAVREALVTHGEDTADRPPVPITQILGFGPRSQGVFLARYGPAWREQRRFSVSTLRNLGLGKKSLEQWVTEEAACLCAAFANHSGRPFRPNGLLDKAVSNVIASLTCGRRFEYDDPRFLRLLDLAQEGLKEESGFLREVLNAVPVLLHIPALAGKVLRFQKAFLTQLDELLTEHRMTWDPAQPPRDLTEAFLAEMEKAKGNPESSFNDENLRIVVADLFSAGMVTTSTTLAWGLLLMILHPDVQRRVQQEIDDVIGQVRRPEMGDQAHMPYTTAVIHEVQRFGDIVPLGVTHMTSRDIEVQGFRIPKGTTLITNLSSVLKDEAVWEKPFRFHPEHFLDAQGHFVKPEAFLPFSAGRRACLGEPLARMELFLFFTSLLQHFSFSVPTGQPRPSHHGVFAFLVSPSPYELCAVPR

With CO[C@H]1/C=C/O[C@@]2(C)Oc3c(C)c(O)c4c(O)c(c5c(nc6cc(C)ccn65)c4c3C2=O)NC(=O)/C(C)=C\C=C\[C@H](C)[C@H](O)[C@@H](C)[C@@H](O)[C@@H](C)[C@H](OC(C)=O)[C@@H]1C [rifaximin, (2S,16Z,18E,20S,21S,22R,23R,24R,25 S,26S,27S,28E)-5,6,21,23,25-pentahydroxy-27-methoxy-2,4,11,16,20,22,24,26-octamethyl-2,7-(epoxypentadeca-[1,11,13]trienimino)benzofuro[4,5-e]pyrido[1,2-á]-benzimidazole-1,15(2H)-dione,25-acetate] the “Regression estimate for AUCτ: Albumin” value [1] was −0.0573, the “Regression estimate for AUCτ: INR” value [1] was −1.7432 and the “Regression estimate for AUCτ: Intercept” value [1] was 8.4175. For the same compound, the “Regression estimate for AUCτ: Total Bilirubin” value [1] was 0.0173, the “Regression estimate for CL/F: ALT” value [1] was −0.0028 and the “Regression estimate for CL/F: Albumin” value [1] was 0.0783. The “Regression estimate for CL/F: INR” value [1] was 2.5949, the “Regression estimate for CL/F: Intercept” value [1] was −0.8934 and the “Regression estimate for CL/F: Total Bilirubin” value [1] was −0.0185. For the same compound, the “Regression estimate for Cmax: ALT” value [1] was 0.0031, the “Regression estimate for Cmax: Albumin” value [1] was −0.0515 and the “Regression estimate for Cmax: INR” value [1] was −2.0654. The “Regression estimate for Cmax: Intercept” value [1] was 6.5350, the “Regression estimate for Cmax: Total Bilirubin” value [1] was 0.0207 and the Abdominal distension ([2]; 550 mg BID, N = 140) was 11 (7.9%) Number (%) of Patients. The Abdominal pain ([2]; 550 mg BID, N = 140) was 12 (8.6%) Number (%) of Patients, the Abdominal pain upper ([2]; 550 mg BID, N = 140) was 9 (6.4%) Number (%) of Patients and the Anemia ([2]; 550 mg BID, N = 140) was 11 (7.9%) Number (%) of Patients. For the same compound, the Arthralgia ([2]; 550 mg BID, N = 140) was 9 (6.4%) Number (%) of Patients, the Ascites ([2]; 550 mg BID, N = 140) was 16 (11.4%) Number (%) of Patients and the Back pain ([2]; 550 mg BID, N = 140) was 9 (6.4%) Number (%) of Patients. For the same compound, the Constipation ([2]; 550 mg BID, N = 140) was 9 (6.4%) Number (%) of Patients, the Cough ([2]; 550 mg BID, N = 140) was 10 (7.1%) Number (%) of Patients and the Depression ([2]; 550 mg BID, N = 140) was 10 (7.1%) Number (%) of Patients. The Dizziness ([2]; 550 mg BID, N = 140) was 18 (12.9%) Number (%) of Patients, the Dyspnea ([2]; 550 mg BID, N = 140) was 9 (6.4%) Number (%) of Patients and the Edema peripheral ([2]; 550 mg BID, N = 140) was 21 (15.0%) Number (%) of Patients. The Fatigue ([2]; 550 mg BID, N = 140) was 17 (12.1%) Number (%) of Patients, the Insomnia ([2]; 550 mg BID, N = 140) was 10 (7.1%) Number (%) of Patients and the Muscle spasms ([2]; 550 mg BID, N = 140) was 13 (9.3%) Number (%) of Patients. The Nasopharyngitis ([2]; 550 mg BID, N = 140) was 10 (7.1%) Number (%) of Patients, the Nausea ([2]; 550 mg BID, N = 140) was 20 (14.3%) Number (%) of Patients and the Pruritus ([2]; 550 mg BID, N = 140) was 13 (9.3%) Number (%) of Patients. The Pyrexia ([2]; 550 mg BID, N = 140) was 9 (6.4%) Number (%) of Patients, the Rash ([2]; 550 mg BID, N = 140) was 7 (5.0%) Number (%) of Patients and the TEAE ascites ([2]; first study) was 11.4%. For the same compound, the TEAE diarrhea ([2]; first study) was 10.7%, the TEAE dizziness ([2]; first study) was 12.9% and the TEAE fatigue ([2]; first study) was 12.1%. It also gave a TEAE headache ([2]; first study) of 10%, a TEAE nausea ([2]; first study) of 14.3% and a TEAE peripheral edema ([2]; first study) of 15%. The “early study discontinuation due to adverse reactions” value ([2]; in vivo) was 6%, the “Number of subjects in each level of change from baseline in asterixis grade” value ([3]; Baseline to EOT, level: r10 −2, r11 −1, r12 0, r13 1, r14 2, r15 3, r16 4) was 18 (12.9%) n (%) and the “Probability of no increase in asterixis grade” value (“Probability of no increase” for short) [3, 5] was 1.0000. For the same compound, the “Probability of no increase” value [3, 6] was 0.9048, the “Probability of no increase” value [3, 7] was 0.8499 and the “Probability of no increase” value [3, 8] was 0.7910. For the same compound, the “Probability of no increase” value [3, 9] was 0.7637, the “Probability of no increase” value ([3]; treatment interval ≧168 days) was 0.7534 and the “subjects with changes in asterixis grade of 1, 2, 3, or 4” value ([3]; baseline to end of treatment) was 11.6%. The “subjects with changes in asterixis grade of −2, −1, and 0” value ([3]; baseline to end of treatment) was 88.5%, the “prevention of worsening of asterixis grade, times versus placebo” value ([3]; in vivo) was 1.92 times and the “reduction in risk of worsening of asterixis” value ([3]; in vivo) was 35%. The “subjects with increases in asterixis grade” value ([3]; in vivo) was 32 of 140, the “time to first increase in Asterixis grade vs placebo (FIG. 5)” value ([3]; in vivo) was “increased time to the first increase in Asterixis grade” and the “Cumulative number of events (increase in asterixis grade)” value [3, 5] was 13. For the same compound, the “Event probability (increase in asterixis grade during the treatment interval)” value [3, 5] was 0.10, the “Number of events (increase in asterixis grade)” value [3, 5] was 13 and the “Cumulative number of events (increase in asterixis grade)” value [3, 6] was 20. For the same compound, the “Event probability (increase in asterixis grade during the treatment interval)” value [3, 6] was 0.06, the “Number of events (increase in asterixis grade)” value [3, 6] was 7 and the “Cumulative number of events (increase in asterixis grade)” value [3, 7] was 27. The “Event probability (increase in asterixis grade during the treatment interval)” value [3, 7] was 0.07, the “Number of events (increase in asterixis grade)” value [3, 7] was 7 and the “Cumulative number of events (increase in asterixis grade)” value [3, 8] was 30. The “Event probability (increase in asterixis grade during the treatment interval)” value [3, 8] was 0.03, the “Number of events (increase in asterixis grade)” value [3, 8] was 3 and the “Cumulative number of events (increase in asterixis grade)” value [3, 9] was 31. For the same compound, the “Event probability (increase in asterixis grade during the treatment interval)” value [3, 9] was 0.01, the “Number of events (increase in asterixis grade)” value [3, 9] was 1 and the “Cumulative number of events (increase in asterixis grade)” value ([3]; treatment interval ≧168 days) was 32. For the same compound, the “Event probability (increase in asterixis grade during the treatment interval)” value ([3]; treatment interval ≧168 days) was 0.03, the “Number of events (increase in asterixis grade)” value ([3]; treatment interval ≧168 days) was 1 and the “inhibition of 2C19” value (cytochrome P450 2C19) was “did not inhibit”. It also gave an AUC(0-t) (clinical) of 19.5 ± 16.5 ng·h/mL, a Cmax (clinical) of 4.3 ± 2.8 ng/mL and a Tmax (clinical) of 1.25 h. For the same compound, the “patients with Conn scores of 3 or 4” value (patients with HE; end of treatment period) was 6%, the days hospitalized (patients with HE; human, in vivo) was 2.5 days and the “hospitalizations due to HE, cost, HE endpoints vs lactulose” value (patients with HE; human, in vivo) was “dramatically reduced”. The “patients with asterixis at end of treatment period” value (patients with HE; human, in vivo) was 63%, the hospitalizations (patients with HE; rifaximin 400 mg 3 times/day, lactulose 30 mL twice daily) was 0.5 and the “inhibition of 2D6” value (cytochrome P450 2D6) was “did not inhibit”. For the same compound, the “inhibition of CYP3A4” value (CYP3A4) was “did not inhibit”, the “effect on epithelial cells” value (epithelial cells) was “resistant to bacterial colonization and internalization” and the “Subjects with ≧1 breakthrough overt HE episode” value ([4]; All Rifaximin N = 266) was 72 (27.1) n (%). For the same compound, the “Subjects with ≧1 breakthrough overt HE episode” value ([4]; Continuing Rifaximin N = 70) was 18 (25.7) n (%), the “Subjects with ≧1 breakthrough overt HE episode” value ([4]; New Rifaximin N = 196) was 54 (27.6) n (%) and the “patients free of breakthrough” value ([4]; after almost 3 years) was “approximately 60%”. The “subjects with 1 breakthrough HE episode” value ([4]; all rifaximin) was 44 subjects, the “subjects with 2 breakthrough HE episodes” value ([4]; all rifaximin) was 18 subjects and the “subjects with 3 or more breakthrough HE episodes” value ([4]; all rifaximin) was “Ten”. For the same compound, the “reduction in risk of breakthrough HE, continuing subjects vs 3001 placebo” value ([4]; in vivo) was 90%, the “subjects with breakthrough overt HE during rifaximin after crossover” value ([4]; in vivo) was 15 of 82 and the “rate of breakthrough HE episodes adjusted for exposure” value ([4]; new rifaximin subjects) was 0.38 events/PEY. For the same compound, the “subjects with >2 HE episodes during rifaximin therapy” value ([4]; up to 840 days, first plus second study) was 3.6% and the “rescue treatment with ciprofloxacin” value (Shigella flexneri 2a) was “eight subjects received rescue treatment”.
